Source: patent US11608323B2 (SYNGENTA LIMITED, priority 2013, dated 2023)

Tests used:
Format in all cases: in vivo
ABUTH [1] = assay: Pre-emergence herbicidal activity, glasshouse pot test; conditions: rate 1000 g/Ha, evaluated after 13 days, scale 0-5
Description: (§1) Seeds of a variety of test species were sown in standard soil in pots. After cultivation for one day (pre-emergence) under controlled conditions in a glasshouse (at 24/16° C., day/night; 14 hours light; 65% humidity), the plants were sprayed with an aqueous spray solution derived from the formulation of the technical active ingredient in acetone/water (50:50) solution containing 0.5% Tween 20 (polyoxyethelyene sorbitan monolaurate, CAS RN 9005-64-5). The test plants were then grown in a glasshouse under controlled conditions (at 24/16° C., day/night; 14 hours light; 65% humidity) and watered twice daily. After 13 days, the test was evaluated (5=total damage to plant; 0=no damage to plant).

ZEAMX [2] = assay: as above; conditions: rate 1000 g/Ha, evaluated after 13 days, scale 0-5
Description: as §1

AMARE [3] = assay: as above; conditions: rate 1000 g/Ha, evaluated after 13 days, scale 0-5
Description: as §1

ECHCG [4] = assay: as above; conditions: rate 1000 g/Ha, evaluated after 13 days, scale 0-5
Description: as §1

SETFA [5] = assay: as above; conditions: rate 1000 g/Ha, evaluated after 13 days, scale 0-5
Description: as §1

ABUTH [6] = assay: Post-emergence herbicidal activity, glasshouse pot test; conditions: Abutilon theophrasti; application post-emergence; rate 1000 g/Ha; evaluated after 13 days
Description: (§2) Seeds of a variety of test species were sown in standard soil in pots. After 8 days cultivation (post-emergence) under controlled conditions in a glasshouse (at 24/16° C., day/night; 14 hours light; 65% humidity), the plants were sprayed with an aqueous spray solution derived from the formulation of the technical active ingredient in acetone/water (50:50) solution containing 0.5% Tween 20 (polyoxyethelyene sorbitan monolaurate, CAS RN 9005-64-5). The test plants were then grown in a glasshouse under controlled conditions (at 24/16° C., day/night; 14 hours light; 65% humidity) and watered twice daily. After 13 days, the test was evaluated (5=total damage to plant; 0=no damage to plant).

ZEAMX [7] = assay: as above; conditions: Zea mays; application post-emergence; rate 1000 g/Ha; evaluated after 13 days
Description: as §2

AMARE [8] = assay: as above; conditions: Amaranthus retroflexus; application post-emergence; rate 1000 g/Ha; evaluated after 13 days
Description: as §2

ECHCG [9] = assay: as above; conditions: Echinochloa crus-galli; application post-emergence; rate 1000 g/Ha; evaluated after 13 days
Description: as §2

SETFA [10] = assay: as above; conditions: Setaria faberi; application post-emergence; rate 1000 g/Ha; evaluated after 13 days
Description: as §2

Compound | ABUTH damage score, application pre-emergence (ABUTH [1]) | ZEAMX damage score, application pre-emergence (ZEAMX [2]) | AMARE damage score, application pre-emergence (AMARE [3]) | ECHCG damage score, application pre-emergence (ECHCG [4]) | SETFA damage score, application pre-emergence (SETFA [5]) | Post-emergence herbicidal activity ABUTH (damage score 0-5) (ABUTH [6]) | Post-emergence herbicidal activity ZEAMX (damage score 0-5) (ZEAMX [7]) | Post-emergence herbicidal activity AMARE (damage score 0-5) (AMARE [8]) | Post-emergence herbicidal activity ECHCG (damage score 0-5) (ECHCG [9]) | Post-emergence herbicidal activity SETFA (damage score 0-5) (SETFA [10])
COC[C@H]1C(O)N(c2cc(C(F)(F)F)ccn2)C(=O)N1C (stereo partly shown) [Compound A78] | 5 | 1 | 5 | 4 | 3 | 5 | 0 | 5 | 5 | 3
CON1C(=O)N(c2cc(C(F)(F)F)c(C)cn2)C(O)[C@@H]1C (stereo partly shown) [Compound A79] | 5 | 2 | 5 | 5 | 5 | 5 | 4 | 5 | 5 | 5
CON1C(=O)N(c2ccc(C(F)(F)F)cn2)C(O)C1C (stereo not shown) [Compound A80] | 5 | 2 | 5 | 5 | 4 | 5 | 4 | 5 | 5 | 5
CN1C(=O)N(c2ccc(C(F)(F)F)cn2)C(O)C1O (stereo not shown) [Compound A81] | 2 | 0 | 3 | 0 | 2 | 4 | 0 | 4 | 2 | 2
CCOC1C(O)N(c2cc(C(F)(F)C(F)(F)F)ccn2)C(=O)N1C (stereo not shown) [Compound A82] | 5 | 2 | 5 | 3 | 3 | 5 | 2 | 5 | 4 | 4
CCOC1C(O)N(c2ccc(C(F)(F)F)cn2)C(=O)N1C (stereo not shown) [Compound A83] | 5 | 1 | 5 | 4 | 4 | 5 | 1 | 5 | 1 | 4
CC1C(O)N(c2cc(C(F)F)ccn2)C(=O)N1C (stereo not shown) [Compound A84] | 5 | 3 | 5 | 5 | 5 | 5 | 4 | 5 | 5 | 5
CC1C(O)N(c2cc(C(F)(F)Cl)ccn2)C(=O)N1C (stereo not shown) [Compound A85] | 5 | 3 | 5 | 5 | 5 | 5 | 4 | 5 | 5 | 5
CC1C(O)N(c2cc(C(F)F)c(Cl)cn2)C(=O)N1C (stereo not shown) [Compound A86] | 5 | 3 | 5 | 5 | 5 | 5 | 2 | 5 | 5 | 5
C#CCN1C(=O)N(c2cc(C(F)(F)F)ccn2)C(O)C1C (stereo not shown) [Compound A87] | 5 | 3 | 5 | 4 | 4 | 5 | 4 | 5 | 5 | 5
CCN1C(=O)N(c2cc(C(F)(F)F)ccn2)C(O)C1C (stereo not shown) [Compound A88] | 5 | 2 | 5 | 4 | 4 | 5 | 3 | 5 | 5 | 5
COC(C)(C)c1ccnc(N2C(=O)N(C)C(C)C2O)c1 (stereo not shown) [Compound A89] | 5 | 2 | 5 | 4 | 4 | 5 | 3 | 5 | 5 | 5
CON1C(=O)N(c2cc(C(F)(F)Cl)ccn2)C(O)[C@@H]1C (stereo partly shown) [Compound A90] | 3 | 2 | 5 | 4 | 4 | 5 | 5 | 5 | 5 | 5
